These results are taken from ChEMBL document CHEMBL4130593, “Identification of an Indazole-Based Pharmacophore for the Inhibition of FGFR Kinases Using Fragment-Led de Novo Design” (ACS Med Chem Lett, 2017).

By IC50 is commonly meant the concentration that gives 50% inhibition. Broadly, the inhibition is the drop in the measured response relative to a control, in per cent.

The target in assay [1] is T1, Fibroblast growth factor receptor 1 (Homo sapiens, UniProt P11362). Kind of assay: Inhibition of recombinant human His-tagged FGFR1 cytoplasmic domain (308 to 731 residues) expressed in baculovirus expression system using Tyr 04 as substrate measured after 1 hr by Z'-LYTE assay.
Assay [2] concerns the target T1, Fibroblast growth factor receptor 1. In words: Inhibition of recombinant human His-tagged FGFR1 cytoplasmic domain (308 to 731 residues) expressed in baculovirus expression system at 500 uM using Tyr 04 as substrate measured after 1 hr by Z'-LYTE assay relative to control.
Assay [3] has the same target. In words: Inhibition of recombinant human His-tagged FGFR1 cytoplasmic domain (308 to 731 residues) expressed in baculovirus expression system at 100 uM using Tyr 04 as substrate measured after 1 hr by Z'-LYTE assay relative to control.
For assay [4], the target named is Fibroblast growth factor receptor 3 (Homo sapiens, UniProt P22607). In words: Inhibition of recombinant human His-tagged FGFR3 cytoplasmic domain (399 to 806 residues) expressed in baculovirus expression system using Tyr 04 as substrate measured after 1 hr by Z'-LYTE assay.
Sequence of Fibroblast growth factor receptor 3 (P22607 whole entry, the tested form may be a part): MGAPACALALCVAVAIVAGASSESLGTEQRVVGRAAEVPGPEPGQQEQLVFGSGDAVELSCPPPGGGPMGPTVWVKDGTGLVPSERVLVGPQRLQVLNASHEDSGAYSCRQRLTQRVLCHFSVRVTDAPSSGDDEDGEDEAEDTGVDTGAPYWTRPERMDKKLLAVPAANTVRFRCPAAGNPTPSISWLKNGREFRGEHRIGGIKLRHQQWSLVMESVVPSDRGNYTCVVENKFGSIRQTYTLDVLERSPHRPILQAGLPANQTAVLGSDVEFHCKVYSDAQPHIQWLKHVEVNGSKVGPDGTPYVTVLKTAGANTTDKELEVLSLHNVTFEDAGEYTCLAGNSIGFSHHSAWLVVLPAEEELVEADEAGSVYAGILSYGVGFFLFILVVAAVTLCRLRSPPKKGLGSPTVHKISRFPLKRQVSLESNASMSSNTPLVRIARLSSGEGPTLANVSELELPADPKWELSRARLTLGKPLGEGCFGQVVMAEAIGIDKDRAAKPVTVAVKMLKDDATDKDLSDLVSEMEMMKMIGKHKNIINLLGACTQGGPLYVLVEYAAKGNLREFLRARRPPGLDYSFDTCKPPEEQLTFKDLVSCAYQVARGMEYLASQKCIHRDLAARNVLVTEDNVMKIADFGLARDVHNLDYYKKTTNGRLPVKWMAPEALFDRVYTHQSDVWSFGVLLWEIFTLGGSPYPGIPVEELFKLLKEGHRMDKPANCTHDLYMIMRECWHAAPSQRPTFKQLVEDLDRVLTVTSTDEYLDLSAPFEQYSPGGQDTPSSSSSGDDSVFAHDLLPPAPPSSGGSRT

T1 sequence (P11362 whole entry, the tested form may be a part): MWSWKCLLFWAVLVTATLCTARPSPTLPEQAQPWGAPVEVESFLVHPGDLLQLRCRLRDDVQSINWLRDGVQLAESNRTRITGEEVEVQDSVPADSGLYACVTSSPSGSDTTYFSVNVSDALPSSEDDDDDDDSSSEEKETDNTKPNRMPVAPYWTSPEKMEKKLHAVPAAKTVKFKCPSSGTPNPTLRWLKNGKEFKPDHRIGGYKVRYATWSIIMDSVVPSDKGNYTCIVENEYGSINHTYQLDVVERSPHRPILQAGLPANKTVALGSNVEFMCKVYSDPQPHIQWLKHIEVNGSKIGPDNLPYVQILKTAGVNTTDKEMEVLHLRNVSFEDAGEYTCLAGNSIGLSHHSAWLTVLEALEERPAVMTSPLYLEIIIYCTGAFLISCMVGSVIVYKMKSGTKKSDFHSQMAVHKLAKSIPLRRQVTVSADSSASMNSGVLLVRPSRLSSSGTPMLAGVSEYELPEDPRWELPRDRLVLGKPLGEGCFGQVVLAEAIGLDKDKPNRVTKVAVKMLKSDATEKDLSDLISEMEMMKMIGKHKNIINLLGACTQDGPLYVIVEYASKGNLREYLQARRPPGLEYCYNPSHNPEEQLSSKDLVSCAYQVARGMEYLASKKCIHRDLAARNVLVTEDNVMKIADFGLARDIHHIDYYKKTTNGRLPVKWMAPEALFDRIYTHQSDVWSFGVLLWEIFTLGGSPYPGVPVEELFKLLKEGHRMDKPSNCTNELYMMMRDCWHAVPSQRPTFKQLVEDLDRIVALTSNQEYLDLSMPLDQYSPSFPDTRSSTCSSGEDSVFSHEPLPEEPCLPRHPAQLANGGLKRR

Turning to `Cc1cc(O)ccc1-c1ccc2cn[nH]c2c1`, in assay [1], the IC50 stood at 6.4 µM. For `c1cncc(-c2ccc3cn[nH]c3c2)c1`, the inhibition at 500 µM in assay [2] was determined as 66%. The IC50 in assay [1] came out at 90 µM. On to `Clc1cccc(-c2ccc3cn[nH]c3c2)c1`, for which the inhibition at 100 µM in assay [3] amounted to 32%. Consider `c1ccc(-c2ccc3cc[nH]c3c2)cc1`, for which, in assay [2], the inhibition at 500 µM was found to be 1%. Consider `c1coc(-c2ccc3cn[nH]c3c2)c1`, for which, in assay [3], the inhibition at 100 µM stood at 29%. As to `Oc1ccc(-c2ccc3cn[nH]c3c2)c(F)c1`, the IC50 in assay [1] is 9.9 µM; in assay [4], over 100 µM. For `CCOc1cc(F)cc(-c2ccc3cn[nH]c3c2)c1` the same measures were 83 µM and over 100 µM.

As to `Clc1cncc(-c2ccc3cc[nH]c3c2)c1`, the inhibition at 500 µM in assay [2] came to 21%. Moreover, the half-maximal inhibitory concentration (IC50) in assay [1] was over 500 µM. For `Clc1cncc(-c2ccc3cn[nH]c3c2)c1` the same measures were 73% and 36 µM.

With `Cc1csc(-c2ccc3cn[nH]c3c2)c1`, the inhibition at 100 µM in assay [3] stood at 19%. Take `Clc1ccc(-c2ccc3cn[nH]c3c2)cc1`: the inhibition at 100 µM in assay [3] was determined as 12%. Still for that read-out and setting: for `Fc1cccc(-c2ccc3cn[nH]c3c2)c1` the value was 19%. For the compound `Oc1ccc(-c2ccc3cn[nH]c3c2)cc1F`, the IC50 in assay [1] turned out to be 14 µM. Consider `c1cc(-c2ccc3cn[nH]c3c2)cs1`, for which the inhibition at 100 µM in assay [3] came to 20%. With `c1ccc(-c2ccc3cn[nH]c3c2)cc1`, in assay [2], the inhibition at 500 µM turned out to be 53%. In addition, in assay [1], the IC50 came to 77 µM. Consider `CCOc1cccc(-c2ccc3cn[nH]c3c2)c1F`, for which the IC50 was 9.7 µM in assay [1] and over 100 µM in assay [4]. Turning to `Cc1cc(-c2ccc3cn[nH]c3c2)ccc1O`, the 50% inhibitory concentration (IC50) in assay [1] is 8.8 µM. As to `CCOc1ccc(F)c(-c2ccc3cn[nH]c3c2)c1F`, the IC50 in assay [1] and in assay [4] was over 100 µM in each case. Turning to `FC(F)(F)c1cc(-c2ccc3cn[nH]c3c2)cc(C(F)(F)F)c1`, in assay [3], the inhibition at 100 µM was -5%. `COc1ccc(-c2ccc3cn[nH]c3c2)cc1`: the inhibition at 100 µM in assay [3] worked out at 11%. In the case of `c1cncc(-c2ccc3cc[nH]c3c2)c1`, in assay [2], the inhibition at 500 µM is 16%.
